Laboratory results from ChEMBL document CHEMBL1201862, “PubChem BioAssay data set” (2004).
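48-hour exposure; five concentrations; linearly interpolated endpoints. At the GI50, growth is halved.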 Calls of active or inactive are those of the source. No stated cut-off is given here; in the data, active = GI50 up to about 1.1 µM and inactive = higher.

How the values were obtained:
Assay in all cases: inhibition of tumour cell growth, NCI panel, 48 h
OVCAR-3 = test system: OVCAR-3
HCT-15 = test system: HCT-15
HCT-116 = test system: HCT-116
SR = test system: SR
KM12 = test system: KM12
Malme-3M = test system: Malme-3M
SK-OV-3 = test system: SK-OV-3
SK-MEL-28 = test system: SK-MEL-28
T47D = test system: T47D
NCI-H460 = test system: NCI-H460
SW-620 = test system: SW-620
HOP-62 = test system: HOP-62
ACHN = test system: ACHN
CAKI-1 = test system: CAKI-1
A498 = test system: A498
BT-549 = test system: BT-549
RPMI-8226 = test system: RPMI-8226
EKVX = test system: EKVX
MDA-N = test system: MDA-N
CCRF-CEM = test system: CCRF-CEM
TK-10 = test system: TK-10
SNB-75 = test system: SNB-75
SNB-19 = test system: SNB-19
OVCAR-8 = test system: OVCAR-8
U-251 = test system: U-251
NCI-H226 = test system: NCI-H226
RXF 393 = test system: RXF 393
SF-539 = test system: SF-539
MCF7 = test system: MCF7
COLO 205 = test system: COLO 205
M14 = test system: M14
HL-60 = test system: HL-60
OVCAR-5 = test system: OVCAR-5
IGROV-1 = test system: IGROV-1
MDA-MB-231 = test system: MDA-MB-231
SK-MEL-5 = test system: SK-MEL-5
HCC 2998 = test system: HCC 2998
DU-145 = test system: DU-145
HOP-92 = test system: HOP-92
786-0 = test system: 786-0
OVCAR-4 = test system: OVCAR-4
A549 = test system: A549
PC-3 = test system: PC-3
MOLT-4 = test system: MOLT-4
K562 = test system: K562
NCI/ADR-RES = test system: NCI/ADR-RES
NCI-H522 = test system: NCI-H522
HT-29 = test system: HT-29
UACC-62 = test system: UACC-62
LOX IMVI = test system: LOX IMVI
MDA-MB-435 = test system: MDA-MB-435
UACC-257 = test system: UACC-257
SN12C = test system: SN12C
NCI-H23 = test system: NCI-H23
UO-31 = test system: UO-31
SK-MEL-2 = test system: SK-MEL-2
SF-295 = test system: SF-295

COc1cc(/C=C2\C(=O)N(c3cc(Cl)ccc3Cl)C(c3ccccc3)S2(=O)=O)cc(OC)c1OC (configuration not stated)
GI50 (OVCAR-3): 34.8 µM (inactive)
GI50 (HCT-15): 39.4 µM
GI50 (HCT-116): 38.5 µM (inactive)
GI50 (SR): 31.6 µM (inactive)
GI50 (KM12): 36.6 µM (inactive)
GI50 (Malme-3M): 42.9 µM (inactive)
GI50 (SK-OV-3): > 100 µM (inactive)
GI50 (SK-MEL-28): 63.8 µM (inactive)
GI50 (T47D): 26.1 µM (inactive)
GI50 (NCI-H460): > 100 µM (inactive)
GI50 (SW-620): 33.7 µM (inactive)
GI50 (HOP-62): > 100 µM (inactive)
GI50 (ACHN): > 100 µM (inactive)
GI50 (CAKI-1): > 100 µM (inactive)
GI50 (A498): > 100 µM (inactive)
GI50 (BT-549): 83.2 µM (inactive)
GI50 (RPMI-8226): 45.4 µM (inactive)
GI50 (EKVX): 29.3 µM (inactive)
GI50 (MDA-N): 22.2 µM (inactive)
GI50 (CCRF-CEM): 42.9 µM (inactive)
GI50 (TK-10): > 100 µM (inactive)
GI50 (SNB-75): 61.1 µM (inactive)
GI50 (SNB-19): > 100 µM (inactive)
GI50 (OVCAR-8): > 100 µM (inactive)
GI50 (U-251): 86.1 µM (inactive)
GI50 (NCI-H226): 25.4 µM (inactive)
GI50 (RXF 393): > 100 µM (inactive)
GI50 (SF-539): 90.6 µM (inactive)
GI50 (MCF7): 27 µM (inactive)
GI50 (COLO 205): > 100 µM (inactive)
GI50 (M14): 40.6 µM (inactive)
GI50 (HL-60): 19.2 µM (inactive)
GI50 (OVCAR-5): 38.5 µM (inactive)
GI50 (IGROV-1): 28.3 µM (inactive)
GI50 (MDA-MB-231): > 100 µM (inactive)
GI50 (SK-MEL-5): 57.4 µM (inactive)
GI50 (HCC 2998): > 100 µM (inactive)
GI50 (DU-145): > 100 µM (inactive)
GI50 (HOP-92): 45.1 µM (inactive)
GI50 (786-0): > 100 µM (inactive)
GI50 (OVCAR-4): 62.1 µM (inactive)
GI50 (A549): > 100 µM (inactive)
GI50 (PC-3): 55.8 µM (inactive)
GI50 (MOLT-4): 25.1 µM (inactive)
GI50 (K562): 31 µM (inactive)
GI50 (NCI/ADR-RES): 34.1 µM (inactive)
GI50 (NCI-H522): 29.5 µM (inactive)
GI50 (HT-29): 81.5 µM (inactive)
GI50 (UACC-62): 37.2 µM (inactive)
GI50 (LOX IMVI): 55.6 µM (inactive)
GI50 (MDA-MB-435): 27.7 µM (inactive)
GI50 (UACC-257): > 100 µM (inactive)
GI50 (SN12C): 62.1 µM (inactive)
GI50 (NCI-H23): 96.4 µM (inactive)
GI50 (UO-31): 46.8 µM (inactive)
GI50 (SK-MEL-2): > 100 µM (inactive)
GI50 (SF-295): 51.5 µM (inactive)
